Experimental data from patent US8124637B2, “Anthra [1, 2-d]imidazole-6,11-dione derivatives, preparation method and application thereof” (National Defense Medical Center, priority 2010, dated 2012).

What was measured:
UACC-257 = experiment: NCI 60-cell drug screen, one dose; type: cell-based, human; settings: Melanoma UACC-257, 1.00E−5 Molar
[1] = MTT assay (relative cell survival), H1299; settings: human, H1299 non-small cell lung cancer cells (PhTERT-SEAP), Relative MTT viability (%)
Experimental: Further, cells were subjected to MTT assay to compare the relative toxicity or effect of each compound on cell proliferation and activity.
The above-described cells are cultured in a 96-well plate, to which was added with 25 μl MTT solution, and cultured in a 37° C. carbon dioxide incubator for 4 hours. Then, 100 μl Lysis buffer is added and incubated in a 37° C. carbon dioxide incubator overnight. An ELISA reader (Bio-Rad Model 450) is used to read optical density (O.D.) at 550 nm.
After being subjected to different compound treatments for 72 hours, cells were treated with a fixed amount of MTT solution for 28 hours. Then, DMSO was used to dissolve back formazan, an O. D. value was detected at wavelength in the range of 550/670 nm, and calculated accordingly the cell survival rate (as shown in Table 1).

NCI-H226 = experiment: NCI 60-cell drug screen, one dose; type: cell-based, human; settings: Non-Small Cell Lung Cancer NCI-H226, 1.00E−5 Molar
In short: (§1)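 Each compound is applied at one concentration to the human tumor lines. Following 48 h incubation, SRB staining measures total cellular protein as an index of growth inhibition or cytotoxicity.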

NCI/ADR-RES = experiment: NCI 60-cell drug screen, one dose; type: cell-based, human; settings: Ovarian Cancer NCI/ADR-RES, 1.00E−5 Molar
In short: as §1

HOP-92 = experiment: NCI 60-cell drug screen, one dose; type: cell-based, human; settings: Non-Small Cell Lung Cancer HOP-92, 1.00E−5 Molar
In short: as §1

OVCAR-4 = experiment: NCI 60-cell drug screen, one dose; type: cell-based, human; settings: Ovarian Cancer OVCAR-4, 1.00E−5 Molar
In short: as §1

PC-3 = experiment: NCI 60-cell drug screen, one dose; type: cell-based, human; settings: Prostate Cancer PC-3, 1.00E−5 Molar
In short: as §1

MCF7 = experiment: NCI 60-cell drug screen, one dose; type: cell-based, human; settings: Breast Cancer MCF7, 1.00E−5 Molar
In short: as §1

UACC-62 = experiment: NCI 60-cell drug screen, one dose; type: cell-based, human; settings: Melanoma UACC-62, 1.00E−5 Molar
In short: as §1

OVCAR-3 = experiment: NCI 60-cell drug screen, one dose; type: cell-based, human; settings: Ovarian Cancer OVCAR-3, 1.00E−5 Molar
In short: as §1

SF-295 = experiment: NCI 60-cell drug screen, one dose; type: cell-based, human; settings: CNS Cancer SF-295, 1.00E−5 Molar
In short: as §1

HCT-116 = experiment: NCI 60-cell drug screen, one dose; type: cell-based, human; settings: Colon Cancer HCT-116, 1.00E−5 Molar
In short: as §1

IGROV1 = experiment: NCI 60-cell drug screen, one dose; type: cell-based, human; settings: Ovarian Cancer IGROV1, 1.00E−5 Molar
In short: as §1

COLO 205 = experiment: NCI 60-cell drug screen, one dose; type: cell-based, human; settings: Colon Cancer COLO 205, 1.00E−5 Molar
In short: as §1

U251 = experiment: NCI 60-cell drug screen, one dose; type: cell-based, human; settings: CNS Cancer U251, 1.00E−5 Molar
In short: as §1

MALME-3M = experiment: NCI 60-cell drug screen, one dose; type: cell-based, human; settings: Melanoma MALME-3M, 1.00E−5 Molar
In short: as §1

HCC-2998 = experiment: NCI 60-cell drug screen, one dose; type: cell-based, human; settings: Colon Cancer HCC-2998, 1.00E−5 Molar
In short: as §1

SK-MEL-5 = experiment: NCI 60-cell drug screen, one dose; type: cell-based, human; settings: Melanoma SK-MEL-5, 1.00E−5 Molar
In short: as §1

MOLT-4 = experiment: NCI 60-cell drug screen, one dose; type: cell-based, human; settings: Leukemia MOLT-4, 1.00E−5 Molar
In short: as §1

HCT-15 = experiment: NCI 60-cell drug screen, one dose; type: cell-based, human; settings: Colon Cancer HCT-15, 1.00E−5 Molar
In short: as §1

HL-60(TB) = experiment: NCI 60-cell drug screen, one dose; type: cell-based, human; settings: Leukemia HL-60(TB), 1.00E−5 Molar
NCI-H23 = experiment: NCI 60-cell drug screen, one dose; type: cell-based, human; settings: Non-Small Cell Lung Cancer NCI-H23, 1.00E−5 Molar
In short: as §1

OVCAR-8 = experiment: NCI 60-cell drug screen, one dose; type: cell-based, human; settings: Ovarian Cancer OVCAR-8, 1.00E−5 Molar
In short: as §1

T-47D = experiment: NCI 60-cell drug screen, one dose; type: cell-based, human; settings: Breast Cancer T-47D, 1.00E−5 Molar
In short: as §1

A549/ATCC = experiment: NCI 60-cell drug screen, one dose; type: cell-based, human; settings: Non-Small Cell Lung Cancer A549/ATCC, 1.00E−5 Molar
In short: as §1

BT-549 = experiment: NCI 60-cell drug screen, one dose; type: cell-based, human; settings: Breast Cancer BT-549, 1.00E−5 Molar
In short: as §1

UO-31 = experiment: NCI 60-cell drug screen, one dose; type: cell-based, human; settings: Renal Cancer UO-31, 1.00E−5 Molar
In short: as §1

NCI-H460 = experiment: NCI 60-cell drug screen, one dose; type: cell-based, human; settings: Non-Small Cell Lung Cancer NCI-H460, 1.00E−5 Molar
In short: as §1

SF-268 = experiment: NCI 60-cell drug screen, one dose; type: cell-based, human; settings: CNS Cancer SF-268, 1.00E−5 Molar
In short: as §1

RXF 393 = experiment: NCI 60-cell drug screen, one dose; type: cell-based, human; settings: Renal Cancer RXF 393, 1.00E−5 Molar
CAKI-1 = experiment: NCI 60-cell drug screen, one dose; type: cell-based, human; settings: Renal Cancer CAKI-1, 1.00E−5 Molar
K562 = experiment: NCI 60-cell drug screen, one dose; type: cell-based, human; settings: Leukemia K562, 1.00E−5 Molar
CCRF-CEM = experiment: NCI 60-cell drug screen, one dose; type: cell-based, human; settings: Leukemia CCRF-CEM, 1.00E−5 Molar
In short: as §1

SR = experiment: NCI 60-cell drug screen, one dose; type: cell-based, human; settings: Leukemia SR, 1.00E−5 Molar
In short: as §1

Compound | viability at 72 h, 1 µM [1] | Growth Percent (NCI-H226) | Growth Percent (NCI/ADR-RES) | Growth Percent (HOP-92) | Growth Percent (OVCAR-4) | Growth Percent (PC-3) | Growth Percent (MCF7) | Growth Percent (UACC-62) | Growth Percent (OVCAR-3) | Growth Percent (SF-295) | Growth Percent (HCT-116) | Growth Percent (IGROV1) | Growth Percent (COLO 205) | Growth Percent (U251) | Growth Percent (MALME-3M) | Growth Percent (HCC-2998) | Growth Percent (SK-MEL-5) | Growth Percent (MOLT-4) | Growth Percent (HCT-15) | Growth Percent (HL-60(TB)) | other results
O=C1c2ccccc2C(=O)c2c1ccc1nc(CN3CCN(c4ccccn4)CC3)[nH]c21 [CL28, 2-((4-(pyridin-2-yl)piperazin-1-yl)methyl)-1H-anthra[1,2-d]imidazole-6,11-dione] | 90.5 ± 4.34% | 91.88% | 81.16% | 93.87% | 64.57% | 89.10% | 81.99% | 85.13% | 88.67% | 92.70% | 84.30% | 91.25% | 110.79% | 86.28% | 124.77% | 92.28% | 83.56% | 61.76% | 86.02% | 97.31% | Growth Percent (UACC-257): 88.91%; viability at 72 h, 10 µM ([1]; 10 μM): 69.5%; viability at 72 h, 100 µM ([1]; 100 μM): 19.8%; Growth Percent (NCI-H23): 81.65%; Growth Percent (OVCAR-8): 88.07%; Growth Percent (T-47D): 56.78%; Growth Percent (A549/ATCC): 91.07%; Growth Percent (BT-549): 102.42%; Growth Percent (UO-31): 60.42%; Growth Percent (NCI-H460): 79.98%; Growth Percent (SF-268): 79.15%; Growth Percent (RXF 393): 89.67%; Growth Percent (CAKI-1): 68.83%; Growth Percent (K562): 83.48%
CN(CCc1ccccn1)Cc1nc2ccc3c(c2[nH]1)C(=O)c1ccccc1C3=O [CL07, 2-((N-methyl-2-(pyridin-2-yl)ethanamino)methyl)-1H-anthra[1,2-d]imidazole-6,11-dione] | 104.3 ± 0.96% | 81.36% | 86.11% | 101.41% | 80.99% | 99.83% | 69.06% | 89.67% | 83.57% | 105.86% | 83.56% | 54.26% | 117.88% | 81.83% | 107.00% | 95.82% | 75.48% | 47.54% | 80.78% | 120.08% | Growth Percent (CCRF-CEM): 39.91%; Growth Percent (SR): 70.10%; Growth Percent (NCI-H23): 90.81%; Growth Percent (OVCAR-8): 80.59%; Growth Percent (T-47D): 68.45%; Growth Percent (A549/ATCC): 106.30%; Growth Percent (BT-549): 114.38%; Growth Percent (UO-31): 49.49%; Growth Percent (NCI-H460): 90.27%; Growth Percent (SF-268): 85.87%
